test system: Veronica persica; experiment: Herbicidal activity against Veronica persica at 500 g/ha after 2 weeks; format: functional; details: not given

| SMILES | Activity [%] |
| --- | --- |
| CCC(C)NC(=O)c1nc(C)c(C)nc1C(=O)Nc1cc(F)ccc1C (racemic) | 95 |

test system: Galium spurium; experiment: Herbicidal activity against Galium spurium var. echinospermon (Wally.) Hayek at 500 g/ha after 2 weeks; format: functional; details: not given

| SMILES | Activity [%] |
| --- | --- |
| CCC(C)NC(=O)c1nc(C)c(C)nc1C(=O)Nc1cc(F)ccc1C (racemic) | <10 |

test system: Abutilon theophrasti; experiment: Herbicidal activity against Abutilon theophrasti (velvetleaf) at 500 g/ha after 2 weeks; format: functional; details: not given

| SMILES | Activity [%] |
| --- | --- |
| CCC(C)NC(=O)c1nc(C)c(C)nc1C(=O)Nc1cc(F)ccc1C (racemic) | 95 |

test system: Avena fatua; experiment: Herbicidal activity against Avena fatua at 500 g/ha after 2 weeks; format: functional; details: not given

| SMILES | Activity [%] |
| --- | --- |
| CCC(C)NC(=O)c1nc(C)c(C)nc1C(=O)Nc1cc(F)ccc1C (racemic) | <10 |

test system: Echinochloa crus-galli; experiment: Herbicidal activity against Echinochloa crus-galli (barnyard grass) at 500 g/ha after 2 weeks; format: functional; details: not given

| SMILES | Activity [%] |
| --- | --- |
| CCC(C)NC(=O)c1nc(C)c(C)nc1C(=O)Nc1cc(F)ccc1C (racemic) | <10 |

test system: Glycine max; experiment: Herbicidal activity against Glycine max (soybean) at 500 g/ha after 2 weeks; format: organism-based; details: in vivo, 336 h

| SMILES | Activity [%] |
| --- | --- |
| CCC(C)NC(=O)c1nc(C)c(C)nc1C(=O)Nc1cc(F)ccc1C (racemic) | < 10 |

test system: Triticum aestivum; experiment: Herbicidal activity against Triticum aestivum (wheat) at 500 g/ha after 2 weeks; format: ADME, organism-based; details: in vivo, 336 h

| SMILES | Activity [%] |
| --- | --- |
| CCC(C)NC(=O)c1nc(C)c(C)nc1C(=O)Nc1cc(F)ccc1C (racemic) | 30 |

test system: Veronica persica; experiment: Herbicidal activity against Veronica persica at 250 g/ha after 2 weeks; format: functional; details: not given

| SMILES | Activity [%] |
| --- | --- |
| CCC(C)NC(=O)c1nc(C)c(C)nc1C(=O)Nc1cc(F)ccc1C (racemic) | 95 |

test system: Galium spurium; experiment: Herbicidal activity against Galium spurium var. echinospermon (Wally.) Hayek at 250 g/ha after 2 weeks; format: functional; details: not given

| SMILES | Activity [%] |
| --- | --- |
| CCC(C)NC(=O)c1nc(C)c(C)nc1C(=O)Nc1cc(F)ccc1C (racemic) | <10 |

test system: Xanthium strumarium; experiment: Herbicidal activity against Xanthium strumarium (cocklebur) 250 g/ha after 2 weeks; format: functional; details: not given

| SMILES | Activity [%] |
| --- | --- |
| CCC(C)NC(=O)c1nc(C)c(C)nc1C(=O)Nc1cc(F)ccc1C (racemic) | <10 |

test system: Abutilon theophrasti; experiment: Herbicidal activity against Abutilon theophrasti (velvetleaf) at 250 g/ha after 2 weeks; format: functional; details: not given

| SMILES | Activity [%] |
| --- | --- |
| CCC(C)NC(=O)c1nc(C)c(C)nc1C(=O)Nc1cc(F)ccc1C (racemic) | 95 |

test system: Echinochloa crus-galli; experiment: Herbicidal activity against Echinochloa crus-galli (barnyard grass) at 250 g/ha after 2 weeks; format: functional; details: not given

| SMILES | Activity [%] |
| --- | --- |
| CCC(C)NC(=O)c1nc(C)c(C)nc1C(=O)Nc1cc(F)ccc1C (racemic) | <10 |

test system: Avena fatua; experiment: Herbicidal activity against Avena fatua at 250 g/ha after 2 weeks; format: functional; details: not given

| SMILES | Activity [%] |
| --- | --- |
| CCC(C)NC(=O)c1nc(C)c(C)nc1C(=O)Nc1cc(F)ccc1C (racemic) | <10 |

test system: Glycine max; experiment: Herbicidal activity against Glycine max (soybean) at 250 g/ha after 2 weeks; format: organism-based; details: in vivo, 336 h

| SMILES | Activity [%] |
| --- | --- |
| CCC(C)NC(=O)c1nc(C)c(C)nc1C(=O)Nc1cc(F)ccc1C (racemic) | < 10 |

test system: Triticum aestivum; experiment: Herbicidal activity against Triticum aestivum (wheat) at 250 g/ha after 2 weeks; format: organism-based; details: in vivo, 336 h

| SMILES | Activity [%] |
| --- | --- |
| CCC(C)NC(=O)c1nc(C)c(C)nc1C(=O)Nc1cc(F)ccc1C (racemic) | < 10 |

test system: Veronica persica; experiment: Herbicidal activity against Veronica persica at 5000 g/ha after 2 weeks; format: functional; details: not given

| SMILES | Activity [%] |
| --- | --- |
| CCNC(=O)c1nc(C)c(C)nc1C(=O)Nc1cc(F)ccc1C | 95 |
| Cc1ccc(Cl)cc1NC(=O)c1nc(C)c(C)nc1C(=O)NCCC(C)C | 95 |
| CCCCCNC(=O)c1nc(C)c(C)nc1C(=O)Nc1cc(F)ccc1C | 30 |
| CNC(=O)c1nc(C)c(C)nc1C(=O)Nc1cc(Cl)ccc1C | 95 |
| CCC(C)NC(=O)c1nc(C)c(C)nc1C(=O)Nc1cc(F)ccc1C (racemic) | 95 |
| CCCCCNC(=O)c1nc(C)c(C)nc1C(=O)Nc1cc(Cl)ccc1C | <10 |
| CNC(=O)c1nc(C)c(C)nc1C(=O)Nc1cc(F)ccc1C | 50 |
| Cc1ccc(F)cc1NC(=O)c1nc(C)c(C)nc1C(=O)NCCC(C)C | 95 |

test system: Galium spurium; experiment: Herbicidal activity against Galium spurium var. echinospermon (Wally.) Hayek at 5000 g/ha after 2 weeks; format: functional; details: not given

| SMILES | Activity [%] |
| --- | --- |
| CCNC(=O)c1nc(C)c(C)nc1C(=O)Nc1cc(F)ccc1C | <10 |
| Cc1ccc(Cl)cc1NC(=O)c1nc(C)c(C)nc1C(=O)NCCC(C)C | 10 |
| CCCCCNC(=O)c1nc(C)c(C)nc1C(=O)Nc1cc(F)ccc1C | <10 |
| CNC(=O)c1nc(C)c(C)nc1C(=O)Nc1cc(Cl)ccc1C | 10 |
| CCC(C)NC(=O)c1nc(C)c(C)nc1C(=O)Nc1cc(F)ccc1C (racemic) | 95 |
| CCCCCNC(=O)c1nc(C)c(C)nc1C(=O)Nc1cc(Cl)ccc1C | <10 |
| CNC(=O)c1nc(C)c(C)nc1C(=O)Nc1cc(F)ccc1C | <10 |
| Cc1ccc(F)cc1NC(=O)c1nc(C)c(C)nc1C(=O)NCCC(C)C | <10 |

test system: Xanthium strumarium; experiment: Herbicidal activity against Xanthium strumarium (cocklebur) 5000 g/ha after 2 weeks; format: functional; details: not given

| SMILES | Activity [%] |
| --- | --- |
| CCNC(=O)c1nc(C)c(C)nc1C(=O)Nc1cc(F)ccc1C | 70 |
| Cc1ccc(Cl)cc1NC(=O)c1nc(C)c(C)nc1C(=O)NCCC(C)C | 30 |
| CCCCCNC(=O)c1nc(C)c(C)nc1C(=O)Nc1cc(F)ccc1C | <10 |
| CNC(=O)c1nc(C)c(C)nc1C(=O)Nc1cc(Cl)ccc1C | <10 |
| CCC(C)NC(=O)c1nc(C)c(C)nc1C(=O)Nc1cc(F)ccc1C (racemic) | 95 |
| CCCCCNC(=O)c1nc(C)c(C)nc1C(=O)Nc1cc(Cl)ccc1C | <10 |
| CNC(=O)c1nc(C)c(C)nc1C(=O)Nc1cc(F)ccc1C | <10 |
| Cc1ccc(F)cc1NC(=O)c1nc(C)c(C)nc1C(=O)NCCC(C)C | <10 |

test system: Abutilon theophrasti; experiment: Herbicidal activity against Abutilon theophrasti (velvetleaf) at 5000 g/ha after 2 weeks; format: functional; details: not given

| SMILES | Activity [%] |
| --- | --- |
| CCNC(=O)c1nc(C)c(C)nc1C(=O)Nc1cc(F)ccc1C | 50 |
| Cc1ccc(Cl)cc1NC(=O)c1nc(C)c(C)nc1C(=O)NCCC(C)C | 95 |
| CCCCCNC(=O)c1nc(C)c(C)nc1C(=O)Nc1cc(F)ccc1C | 30 |
| CNC(=O)c1nc(C)c(C)nc1C(=O)Nc1cc(Cl)ccc1C | <10 |
| CCC(C)NC(=O)c1nc(C)c(C)nc1C(=O)Nc1cc(F)ccc1C (racemic) | 95 |
| CCCCCNC(=O)c1nc(C)c(C)nc1C(=O)Nc1cc(Cl)ccc1C | <10 |
| CNC(=O)c1nc(C)c(C)nc1C(=O)Nc1cc(F)ccc1C | <10 |
| Cc1ccc(F)cc1NC(=O)c1nc(C)c(C)nc1C(=O)NCCC(C)C | 95 |

test system: Echinochloa crus-galli; experiment: Herbicidal activity against Echinochloa crus-galli (barnyard grass) at 5000 g/ha after 2 weeks; format: functional; details: not given

| SMILES | Activity [%] |
| --- | --- |
| CCNC(=O)c1nc(C)c(C)nc1C(=O)Nc1cc(F)ccc1C | <10 |
| Cc1ccc(Cl)cc1NC(=O)c1nc(C)c(C)nc1C(=O)NCCC(C)C | 70 |
| CCCCCNC(=O)c1nc(C)c(C)nc1C(=O)Nc1cc(F)ccc1C | 30 |
| CNC(=O)c1nc(C)c(C)nc1C(=O)Nc1cc(Cl)ccc1C | 10 |
| CCC(C)NC(=O)c1nc(C)c(C)nc1C(=O)Nc1cc(F)ccc1C (racemic) | 30 |
| CCCCCNC(=O)c1nc(C)c(C)nc1C(=O)Nc1cc(Cl)ccc1C | <10 |
| CNC(=O)c1nc(C)c(C)nc1C(=O)Nc1cc(F)ccc1C | <10 |
| Cc1ccc(F)cc1NC(=O)c1nc(C)c(C)nc1C(=O)NCCC(C)C | 30 |

test system: Avena fatua; experiment: Herbicidal activity against Avena fatua at 5000 g/ha after 2 weeks; format: functional; details: not given

| SMILES | Activity [%] |
| --- | --- |
| CCNC(=O)c1nc(C)c(C)nc1C(=O)Nc1cc(F)ccc1C | 10 |
| Cc1ccc(Cl)cc1NC(=O)c1nc(C)c(C)nc1C(=O)NCCC(C)C | 30 |
| CCCCCNC(=O)c1nc(C)c(C)nc1C(=O)Nc1cc(F)ccc1C | <10 |
| CNC(=O)c1nc(C)c(C)nc1C(=O)Nc1cc(Cl)ccc1C | <10 |
| CCC(C)NC(=O)c1nc(C)c(C)nc1C(=O)Nc1cc(F)ccc1C (racemic) | 30 |
| CCCCCNC(=O)c1nc(C)c(C)nc1C(=O)Nc1cc(Cl)ccc1C | <10 |
| CNC(=O)c1nc(C)c(C)nc1C(=O)Nc1cc(F)ccc1C | <10 |
| Cc1ccc(F)cc1NC(=O)c1nc(C)c(C)nc1C(=O)NCCC(C)C | 30 |

test system: Glycine max; experiment: Herbicidal activity against Glycine max (soybean) at 5000 g/ha after 2 weeks; format: organism-based; details: in vivo, 336 h

| SMILES | Activity [%] |
| --- | --- |
| CCNC(=O)c1nc(C)c(C)nc1C(=O)Nc1cc(F)ccc1C | < 10 |
| Cc1ccc(Cl)cc1NC(=O)c1nc(C)c(C)nc1C(=O)NCCC(C)C | < 10 |
| CCCCCNC(=O)c1nc(C)c(C)nc1C(=O)Nc1cc(F)ccc1C | < 10 |
| CNC(=O)c1nc(C)c(C)nc1C(=O)Nc1cc(Cl)ccc1C | < 10 |
| CCC(C)NC(=O)c1nc(C)c(C)nc1C(=O)Nc1cc(F)ccc1C (racemic) | < 10 |
| CCCCCNC(=O)c1nc(C)c(C)nc1C(=O)Nc1cc(Cl)ccc1C | < 10 |
| CNC(=O)c1nc(C)c(C)nc1C(=O)Nc1cc(F)ccc1C | < 10 |
| Cc1ccc(F)cc1NC(=O)c1nc(C)c(C)nc1C(=O)NCCC(C)C | < 10 |

test system: Triticum aestivum; experiment: Herbicidal activity against Triticum aestivum (wheat) at 5000 g/ha after 2 weeks; format: ADME, organism-based; details: in vivo, 336 h

| SMILES | Activity [%] |
| --- | --- |
| CCNC(=O)c1nc(C)c(C)nc1C(=O)Nc1cc(F)ccc1C | < 10 |
| Cc1ccc(Cl)cc1NC(=O)c1nc(C)c(C)nc1C(=O)NCCC(C)C | < 10 |
| CCCCCNC(=O)c1nc(C)c(C)nc1C(=O)Nc1cc(F)ccc1C | < 10 |
| CNC(=O)c1nc(C)c(C)nc1C(=O)Nc1cc(Cl)ccc1C | 10 |
| CCC(C)NC(=O)c1nc(C)c(C)nc1C(=O)Nc1cc(F)ccc1C (racemic) | 50 |
| CCCCCNC(=O)c1nc(C)c(C)nc1C(=O)Nc1cc(Cl)ccc1C | < 10 |
| CNC(=O)c1nc(C)c(C)nc1C(=O)Nc1cc(F)ccc1C | < 10 |
| Cc1ccc(F)cc1NC(=O)c1nc(C)c(C)nc1C(=O)NCCC(C)C | 10 |

Reference: ChEMBL document CHEMBL3046846, “Synthesis of N-Alkyl-2, 3-dimethyl-5-[N-(5-halo-2-methylphenyl)carbamoyl]-6-pyrazinecarboxamides and Their Herbicidal Activity” (J Pestic Sci, 1997)
